Results reported in patent US7988776B2, “Coloring composition, thermal transfer recording ink sheet, thermal transfer recording method, color toner, inkjet ink, color filter, and azo dye” (Fujifilm Corporation, priority 2007, dated 2011).

Columns and labels:
Format in all cases: physicochemical
[1] = Light fastness of recorded images under Xe light; conditions: retention of status A reflection density 1.0 after Xe light (17000 lux) for 7 days
Protocol: Next, the recorded samples were exposed to an Xe light (17000 lux) for 7 days, and tested for the light stability (light fastness) of the recorded images. After the exposure, the status A reflection density of the part of each sample having an original status A reflection density of 1.0 before the exposure was measured, and the retention (by percentage) to the reflection density of 1.0 after exposure to that before exposure indicates the image stability. With the retention percentage, the samples were ranked in three, A (from 80% to less than 100%), B (from 60% to less than 80%), C (less than 60%).

[2] = Dye solubility in ink sheet construction; design: key: A (easily soluble); B (soluble); C (difficult to dissolve, but soluble); conditions: dye-donating layer-forming coating composition, methyl ethyl ketone/toluene (1/1)
Excerpt: A polyester film (Lumirror, trade name by Toray) having a thickness of 6.0 μm and processed for heat-resistant lubrication with a thermosetting acrylic resin (thickness 1 μm) on its back was used as a support.
The dye solubility was ranked in three, A (easily soluble), B (soluble) r C (difficult to dissolve, but soluble).

[3] = Absorption spectrometry in ethyl acetate solution (maximum absorption wavelength); conditions: concentration 1×10^−6 mol/L, optical path length 10 mm
Protocol: The thus-obtained compounds (1), (2), (5) and (10) were analyzed absorption spectrometry in an ethyl acetate solution (concentration: 1×10^−6 mol/L, optical path length: 10 mm).

- Light Fastness [1]: A (A (from 80% to less than 100%))
- Solubility [2]: A
- Maximum Absorption Wavelength [3]: 539 nm
SMILES: C=CCN(CC=C)c1ccc(/N=N/c2c(C#N)c(C(C)(C)C)nn2S(C)(=O)=O)c(NC(C)=O)c1 [(5)]
